Test results from patent US20160083374A1, “AMORPHOUS FORM OF CANAGLIFLOZIN AND PROCESS FOR PREPARING THEREOF” (CADILA HEALTHCARE LIMITED, priority 2013, published 2016).

Experiments:
[1] = Solid-form stability under normal stability conditions; assay type: physicochemical; settings: amorphous canagliflozin obtained by removal of solvent per the invention
From the text: The obtained amorphous canagliflozin is stable under normal stability conditions and substantially free from residual solvent. Therefore, there is no physical change observed from amorphous form to crystalline form during the stability.
In another general aspect, the stable amorphous form of canagliflozin, is stored under nitrogen atmosphere and packed in a double polythene bag tied with a thread, keeping primary packing containing amorphous canagliflozin or salts thereof inside a black color polyethylene bag containing oxygen busters and sealing it, placing above the double polyethylene bag inside a triple laminated bag optionally containing oxygen busters and sealing it, and placing the sealed triple laminated bag inside a closed high density polyethylene (HDPE) container and storing in controlled environment chamber at about 25° C. and/or 40° C.

[2] = cited from earlier work

Compound: Cc1ccc([C@@H]2O[C@H](CO)[C@@H](O)[C@H](O)[C@H]2O)cc1Cc1ccc(-c2ccc(F)cc2)s1 [amorphous canagliflozin]
- stability of amorphous form (change from amorphous to crystalline form) [1]: stable
- physical change between sorption/desorption cycles ([2]; amorphous canagliflozin of US '487 A1, humidity increased from 70% to 90% RH): conversion or partial conversion from the amorphous state to a crystalline state
- hygroscopicity by DVS ([2]; amorphous canagliflozin prepared by the process of US '487 A1 (toluene solution into n-heptane)): hygroscopic
